Measurements: publication PMC9940430, “Angiotensin converting enzyme (ACE) inhibitors activity from purified compounds Fructus Phaleria macrocarpa (Scheff) Boerl” (BMC Complementary Medicine and Therapies, 2023)
Converted amounts (≈) assume the structure as drawn.

What was measured:
leukemia l1210 cell line = test system: leukemia l1210 cell line; set-up: method as in doi:10.22146/ijc.21576; settings: isolated from the bark of Mahkota Dewa; cited from earlier work
[1] = target: T1, angiotensin-converting enzyme (ACE) (Homo sapiens, UniProt P12821); experiment: In-vitro ACE inhibitor activity assay (HHL substrate, hippuric acid read at 228 nm); assay type: biochemical; settings: for inhibition at 1.25 µg/mL: ACE inhibition at a concentration of 1.25 μg/ml, read-out: inhibitory activity ± SD (%); for IC50: ACE inhibition, purified compounds and captopril, read-out: IC50 ± SD (μg/mL) (converted)
Description: This assay was conducted on extract, fraction and three purified compounds using captopril as a positive control at the concentration of 0,01, 0,05, 0,5, 1,25 dan 6,25 mM. In a test tube, 50 μL of the solution assay was added with 50 μL of 8 mM hippuryl-histidyl-leucine (HHL) substrate solution and pre-incubated at 37 °C for 10 minutes, followed by the addition of 100 μL of the ACE, homogenization by vortex mixer, and incubation for 90 minutes at 37 °C. Further, 250 μL of 1 N HCl was added to the mixture to stop the enzymatic reaction. The hippuric acid was produced, while the enzymatic reaction was extracted by 1.5 mL ethyl acetate and later separated from the mixture by centrifugation. The mixture was then concentrated by heating at 100 °C and dispersed in 3 mL of demineralized aqueous to have its absorbance measured by spectrophotometer at 228 nm. The hippuric acid concentration was utilized to calculate the percentage of inhibition (%), and the IC50 value was then calculated using the percentage inhibition obtained. […] An inhibition kinetics test was employed to determine the inhibition mechanism of these compounds. It was performed type of Inhibition was determined by the Lineweaver-Burk method to acquire the Michaelis-Menten kinetic constant. The Michaelis-Menten kinetic constant (Km) is assessed based on the regression equation y = a + bx, in which x is the substrate concentration [S], and y is the absorbance of the sample [18].
Additionally, most chemicals originating from plants positively affect other aspects of normal metabolism. […] The activity of ACE inhibition from medicines or plant extracts can be detected using various ACE inhibitory activity assay methods. Using a substrate of hippuryl-histidyl-leucine (HHL), we used the Cushman and Cheung approach to the data from this study. The ACE will hydrolyze HHL into hippuric acid (HA). A UV-visible spectrophotometer was used to measure the HA at a wavelength of 228 nm to describe the ACE activity. […] Most ACE inhibitory plant metabolites are peptides, protein hydrolysates, phenolics, flavonoids, terpenoids, and alkaloids.

[2] = target: T1, angiotensin-converting enzyme (ACE); experiment: Enzyme inhibition kinetics of ACE (Lineweaver-Burk plot); assay type: biochemical; settings: for type of inhibition kinetics: Lineweaver-Burk, HHL substrate 4, 6, 8, 10 and 12 μg/ml
Description: This assay was conducted on extract, fraction and three purified compounds using captopril as a positive control at the concentration of 0,01, 0,05, 0,5, 1,25 dan 6,25 mM. In a test tube, 50 μL of the solution assay was added with 50 μL of 8 mM hippuryl-histidyl-leucine (HHL) substrate solution and pre-incubated at 37 °C for 10 minutes, followed by the addition of 100 μL of the ACE, homogenization by vortex mixer, and incubation for 90 minutes at 37 °C. Further, 250 μL of 1 N HCl was added to the mixture to stop the enzymatic reaction. The hippuric acid was produced, while the enzymatic reaction was extracted by 1.5 mL ethyl acetate and later separated from the mixture by centrifugation. The mixture was then concentrated by heating at 100 °C and dispersed in 3 mL of demineralized aqueous to have its absorbance measured by spectrophotometer at 228 nm. The hippuric acid concentration was utilized to calculate the percentage of inhibition (%), and the IC50 value was then calculated using the percentage inhibition obtained. The IC50 value was determined as the peptide concentration in mg/mL was demanded to reduce 50% of ACE activity by regression analysis of the ACE inhibition versus ACE concentration percentage. The examination of the kinetics of enzyme inhibition was carried out at several concentrations of HHL substrates, which are 4, 6, 8, 10, and 12 μg/ml. The samples administered were compound with the lowest IC50 value. An inhibition kinetics test was employed to determine the inhibition mechanism of these compounds. It was performed type of Inhibition was determined by the Lineweaver-Burk method to acquire the Michaelis-Menten kinetic constant. The Michaelis-Menten kinetic constant (Km) is assessed based on the regression equation y = a + bx, in which x is the substrate concentration [S], and y is the absorbance of the sample [18].
Kinetic analysis of ACE inhibition was conducted by administering the Lineweaver-Burk plot (Fig. 4). […] The Lineweaver-Burk graph is generated from relationship of 1/[S] to 1/V.
The active compound with the smallest IC50 value was examined for enzyme inhibition kinetics. […] However, the Km values are different based on the calculation results of the Michaelis-Menten constant. […] Competitive inhibitors compete with the substrate for the enzyme’s active site so that the enzyme cannot produce an enzyme-substrate complex. However, when the concentration of the competitive inhibitor is greater than that of the substrate, it binds to the active binding site to form an enzyme inhibitor complex (EI), which ultimately prevents the formation of any product. In a typical enzymatic reaction, Vmax is the reaction’s maximal rate. Km, also known as the Michaelis-Menten constant, is the substrate concentration halfway between Vmax and Km. […]

T1 sequence (P12821 30-1306, species assumed): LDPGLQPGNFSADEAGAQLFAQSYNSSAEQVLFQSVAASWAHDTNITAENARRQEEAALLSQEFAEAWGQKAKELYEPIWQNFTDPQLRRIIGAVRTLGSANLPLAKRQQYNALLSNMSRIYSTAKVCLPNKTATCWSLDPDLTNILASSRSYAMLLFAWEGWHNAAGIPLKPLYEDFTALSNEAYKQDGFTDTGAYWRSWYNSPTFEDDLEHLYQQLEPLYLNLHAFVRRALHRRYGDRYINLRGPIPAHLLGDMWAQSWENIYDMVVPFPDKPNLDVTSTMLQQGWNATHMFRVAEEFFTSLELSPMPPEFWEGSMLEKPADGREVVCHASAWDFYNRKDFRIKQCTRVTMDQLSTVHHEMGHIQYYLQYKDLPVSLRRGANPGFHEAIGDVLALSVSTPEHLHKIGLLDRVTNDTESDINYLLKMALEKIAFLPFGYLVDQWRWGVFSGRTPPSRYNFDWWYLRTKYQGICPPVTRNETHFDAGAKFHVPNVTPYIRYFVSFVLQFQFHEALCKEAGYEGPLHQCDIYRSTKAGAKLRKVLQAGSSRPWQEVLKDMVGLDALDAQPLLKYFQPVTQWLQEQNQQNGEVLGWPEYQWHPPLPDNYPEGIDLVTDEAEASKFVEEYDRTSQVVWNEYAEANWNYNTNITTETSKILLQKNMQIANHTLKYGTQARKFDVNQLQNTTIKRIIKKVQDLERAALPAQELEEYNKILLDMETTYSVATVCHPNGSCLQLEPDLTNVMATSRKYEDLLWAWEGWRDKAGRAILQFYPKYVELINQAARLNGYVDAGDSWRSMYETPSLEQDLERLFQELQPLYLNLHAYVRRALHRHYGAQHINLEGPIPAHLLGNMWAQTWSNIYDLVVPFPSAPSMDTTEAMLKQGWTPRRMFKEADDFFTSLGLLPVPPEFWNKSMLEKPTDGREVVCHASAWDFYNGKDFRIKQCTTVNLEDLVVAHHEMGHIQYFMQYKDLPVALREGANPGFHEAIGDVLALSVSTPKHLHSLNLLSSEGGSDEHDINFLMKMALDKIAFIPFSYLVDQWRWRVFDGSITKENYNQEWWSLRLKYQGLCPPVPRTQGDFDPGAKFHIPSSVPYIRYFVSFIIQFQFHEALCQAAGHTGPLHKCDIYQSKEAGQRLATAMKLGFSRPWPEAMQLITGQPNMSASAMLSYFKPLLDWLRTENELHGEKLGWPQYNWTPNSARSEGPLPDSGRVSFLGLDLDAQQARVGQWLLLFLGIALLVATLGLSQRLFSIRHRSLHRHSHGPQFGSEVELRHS

inhibition at 1.25 µg/mL [1]	IC50 [1]	Vmax, isolate versus without inhibitor ([2]; Lineweaver-Burk plot, Fig. 4)	type of inhibition kinetics ([2]; listed as compound 3)	type of inhibition kinetics ([2]; listed as mangiferin)	Km, isolate versus without inhibitor ([2]; Michaelis-Menten constant, Fig. 4)	SMILES	IC50 (leukemia l1210 cell line)
						COc1cc(O)c(C(=O)c2ccc(O)cc2)c(OC2OC(CO)C(O)C(O)C2O)c1 [6,4′-dihydroxy-6-methoxybenzophenone-2-O-β-D-glucopyranoside]	5.1 µg/mL (≈ 12.1 µM)
77.48 ± 0.5%	130 nM					COc1cc(O)c(C(=O)c2ccc(O)cc2)c(OC2OC(CO)C(O)C(O)C2O)c1 [Compound 1, 6,4′-dihydroxy-4-methoxybenzophenone-2-O-β-D-glucopyranoside]	
85.17 ± 0.23%	166 nM					COc1cc(O)cc(OC2OC(CO)C(O)C(O)C2O)c1C(=O)c1ccc(O)cc1 [Compound 2, 4,4′-dihydroxy-6-methoxybenzophenone-2-O-β-D-glucopyranoside]	
86.99 ± 0.02%	59.2 nM	almost the same	competitively inhibiting	competitive inhibition	different	O=c1c2cc(O)c(O)cc2oc2cc(O)c([C@@H]3O[C@H](CO)[C@@H](O)[C@H](O)[C@H]3O)c(O)c12 [Compound 3, mangiferin]	
